Results from patent US20230053540A1, “TREATMENT OF LIVER INJURY” (Massachusetts Institute of Technology, priority 2019, published 2023).

Tested on: hepatocytes
Assay: Seq-Well scRNA-Seq of hepatocytes after APAP overdose (signature scores, DEG vs untreated)
Format: in vivo, mouse
Details: APAP vs UT

CC(=O)Nc1ccc(O)cc1 [APAP, acetaminophen]
Apobec1 logFC: 0.3051 | Apol7a logFC: −0.4923 | App logFC: 0.3618 | Arcn1 logFC: 0.3278 | Arl4d logFC: −0.5072 | Asgr1 logFC: −0.3857 | Atox1 logFC: −0.4462 | Atp5e logFC: −0.6502 | Atp5f1 logFC: −0.5171 | Atp5j2 logFC: −0.5131 | Atp5j logFC: −0.4837 | Atp8b1 logFC: 0.3628 | Atxn1 logFC: 0.3049 | BC005537 logFC: 0.3543 | Baz1a logFC: 0.2596 | Bcl3 logFC: 0.289 | Blvrb logFC: −0.5451 | Btg1 logFC: 0.458 | Btg2 logFC: 0.8321 | C1qa logFC: 0.5148 | C1qc logFC: 0.5861 | C8a logFC: 0.3337 | Calm1 logFC: 0.4131 | Calu logFC: 0.3041 | Canx logFC: 0.3434 | Cat logFC: 0.2626 | Cd44 logFC: 0.3037 | Cd53 logFC: 0.2656 | Cd74 logFC: 0.4539 | Cd97 logFC: 0.3458 | Cd302 logFC: −0.5499 | Cebpb logFC: −0.4716 | Ces1e logFC: 0.2656 | Ces3b logFC: −0.3664 | Cfh logFC: 0.4009 | Cfhr2 logFC: −0.4485 | Cfi logFC: 0.2516 | Cfp logFC: 0.3562 | Chchd2 logFC: −0.5525 | Chic2 logFC: 0.4198 | Cldn14 logFC: 0.3645 | Clpx logFC: −0.4047 | Cltc logFC: 0.785 | Cmah logFC: 0.3616 | Cmbl logFC: −0.4427 | Cml1 logFC: −0.6142 | Cml2 logFC: −0.3979 | Copa logFC: 0.3451 | Cox5b logFC: −0.4988 | Cox7a2 logFC: −0.6503 | Cox7b logFC: −0.6422 | Cpb2 logFC: 0.3222 | Cps1 logFC: 0.3245 | Crp logFC: −0.5069 | Csde1 logFC: 0.3269 | Ctsd logFC: 0.2579 | Ctsl logFC: 0.5301 | Cxadr logFC: 0.6985 | Cyb5b logFC: −0.4233 | Cyb5r3 logFC: 0.339 | Cyp4a12a logFC: −0.4568 | Cytip logFC: 0.2676 | Dcxr logFC: −0.4409 | Ddt logFC: −0.5222 | Ddx3x logFC: 0.6569 | Ddx5 logFC: 0.5229 | Ddx21 logFC: 0.7314 | Dgkd logFC: 0.3708 | Dhrs3 logFC: −0.4676 | Dio1 logFC: −0.5453 | Dkc1 logFC: 0.3258 | Dnajc12 logFC: 0.3221 | Dot1l logFC: 0.397 | Dst logFC: 0.511 | Dstn logFC: 0.3243 | Dusp6 logFC: 0.5916 | Dusp16 logFC: 0.4605 | Eaf1 logFC: 0.5218 | Ebpl logFC: −0.4503 | Eef1b2 logFC: −0.3173 | Eef2 logFC: 0.5259 | Efna1 logFC: 0.3361 | Eif1a logFC: 0.7953 | Eif4g1 logFC: 0.3749 | Epas1 logFC: 0.7758 | Epb4.1 logFC: 0.5628 | Errfi1 logFC: 0.3937 | Etf1 logFC: 0.5594 | Etfb logFC: −0.3655 | Etnk1 logFC: 0.3521 | F5 logFC: 0.3006 | Fabp2 logFC: −0.6156 | Fcgr3 logFC: 0.3082 | Fcna logFC: 0.3774 | Fdx1 logFC: −0.6234 | Fgl2 logFC: 0.2818 | Fkbp5 logFC: 0.5161 | Fndc3b logFC: 0.4096 | Fos logFC: 0.432 | Fxyd1 logFC: −0.4799 | Gamt logFC: −0.5603 | Gas5 logFC: −0.3362 | Gchfr logFC: −0.5548 | Gclm logFC: 0.2699 | Gjb2 logFC: 0.6082 | Glyat logFC: −0.6477 | Gm4076 logFC: −0.3255 | Gm4952 logFC: −0.4987 | Gm5096 logFC: −0.3631 | Gm23388 logFC: 0.4162 | Gm24187 logFC: 0.4319 | Gm26917 logFC: 0.8237 | Gnl2 logFC: 0.3905 | Gnl3 logFC: 0.576 | Gpt2 logFC: 0.5391 | Gsta2 logFC: 0.2522 | Gstm3 logFC: −0.5986 | Gstz1 logFC: −0.4641 | Gulo logFC: −0.8017 | H2-Aa logFC: 0.3279 | H2-Ab1 logFC: 0.461 | H2-Eb1 logFC: 0.3279 | H3f3b logFC: 0.7029 | Haao logFC: −0.5912 | Hacl1 logFC: −0.7069 | Hadha logFC: 0.2509 | Hal logFC: 0.2801 | Hao1 logFC: 0.323 | Hc logFC: 0.3679 | Heatr1 logFC: 0.406 | Hebp1 logFC: −0.6354 | Hes6 logFC: −0.5613 | Hibadh logFC: −0.4994 | Hic2 logFC: 0.2898 | Hif1a logFC: 0.5169 | Hint2 logFC: −0.4243 | Hook1 logFC: 0.3274 | Hpd logFC: −0.5182 | Hpgd logFC: −0.3878 | Hpx logFC: −0.3033 | Hs3st3b1 logFC: 0.343 | Hsd17b2 logFC: −0.5959 | Hspa13 logFC: 0.3548 | Hspb8 logFC: 0.6339 | Hspe1 logFC: −0.4807 | Ibtk logFC: 0.3311 | Ier5 logFC: 0.289 | Ifitm3 logFC: −0.4251 | Igfbp1 logFC: 1.059 | Igfbp2 logFC: −0.3451 | Il6st logFC: 0.3335 | Il13ra1 logFC: 0.303 | Inmt logFC: −0.731 | Insig1 logFC: 0.4655 | Ipo7 logFC: 0.3246 | Itgb2 logFC: 0.2723 | Itih2 logFC: 0.5011 | Jak1 logFC: 0.6039 | Jmjd1c logFC: 0.6366 | Kctd3 logFC: 0.2608 | Keg1 logFC: −0.8245 | Klf15 logFC: −0.4518 | Kmo logFC: −0.3844 | Lactb2 logFC: −0.5965 | Laptm5 logFC: 0.3382 | Lcn2 logFC: 0.4122 | Leap2 logFC: −0.6713 | Lect2 logFC: −0.627 | Lgmn logFC: 0.4846 | Lgr4 logFC: 0.269 | Lman1 logFC: 0.2986 | Lmo4 logFC: 0.3205 | Lonp2 logFC: −0.4674 | Lpin1 logFC: 0.2775 | Lrp1 logFC: 0.5051 | Lrrc59 logFC: 0.3772 | Lrrfip1 logFC: 0.4459 | Lyst logFC: 0.4093 | Maff logFC: 0.3553 | Mak16 logFC: 0.3171 | Malat1 logFC: 0.9206 | Manf logFC: 0.4689 | Map2k3 logFC: 0.4347 | Mbl1 logFC: −0.713 | Mcm10 logFC: −0.4874 | Mdn1 logFC: 0.318 | Minos1 logFC: −0.4555 | Mlec logFC: 0.3246 | Mmp14 logFC: 0.2889 | Mpc1 logFC: −0.2818 | Mpc2 logFC: −0.4828 | Mrpl14 logFC: −0.459 | Msn logFC: 0.2602 | Msrb1 logFC: −0.599 | Mug2 logFC: 0.3704 | Mup2 logFC: 1 | Myo1e logFC: 0.6143 | Nab1 logFC: 0.3342 | Ndufa6 logFC: −0.6136 | Ndufa7 logFC: −0.5559 | Ndufa13 logFC: −0.4388 | Ndufb2 logFC: −0.5772
